Measured values as given in patent US20210315992A1, “ADJUVANT EFFECT OF THE TLR1/2 AGONIST DIPROVOCIM SYNERGIZES WITH CHECKPOINT-INHIBITING ANTIBODIES TO ELIMINATE DISEASE” (The Board of Regents of the University of Texas System, priority 2018, published 2021).

System: MAPK and canonical NF-κB signaling
Experiment: Western blotting of THP-1 cell lysates
Assay type: cell-based, human
Conditions: THP-1 cells, 5 nM
Procedure: Mouse peritoneal macrophages or human THP-1 cells (1×10^6 per well) were stimulated in 12-well plates with a Diprovocim at 500 nM for mouse cells or 5 nM for human cells for the indicated times and lysed directly in sample buffer (Sigma). Cell lysates were separated by SDS-PAGE and transferred to nitrocellulose membranes. Membranes were probed with the following antibodies: phospho-IKKα (Ser176)/IKKβ (Ser177), IκBα, phospho-p38 (Thr180/Tyr182), phospho-JNK (Thr183/Tyr185), phospho-ERK1/2 (Thr202/Tyr204) (Cell Signaling Technology) and β-Actin (Sigma).

## O=C(N[C@H]1C[C@@H]1c1ccccc1)[C@@H]1CN(C(=O)c2ccc(C(=O)N3C[C@@H](C(=O)N[C@H]4C[C@@H]4c4ccccc4)[C@H](C(=O)N[C@H]4C[C@@H]4c4ccccc4)C3)cc2)C[C@H]1C(=O)N[C@H]1C[C@@H]1c1ccccc1 [Diprovocim-1, (3S,3'S,4S,4'S)-1,1′-Terephthaloylbis(N^3,N^4-bis((1S,2R)-2-phenylcyclo-propyl)pyrrolidine-3,4-dicarboxamide)]
  phosphorylation of signaling proteins and IκBα degradation: induced phosphorylation of IκKα, IKKβ, p38, JNK, and ERK, as well as degradation of IκBα
